Four compounds from patent publication US4708966A, “Novel anti-inflammatory agents, pharmaceutical compositions and methods for reducing inflammation” (The Procter & Gamble Company, priority 1986, dated 1987) can be followed below.

The test system of assay [1] is arachidonic acid-induced inflamed mouse ear. Briefly: Arachidonic Acid-Induced Inflamed Mouse Ear Test. The note with it: for inhibition in vivo at 50 µg/ear: Mus musculus, 50 ug/ear topical, 3 hours, read-out: Percent Inhibition at 50 ug/ear topical dose; for ID50: topical, by regression analysis. Type of assay: in vivo, Adult male Cox ICR mice. As to the method:
Arachidonic Acid-Induced Inflamed Mouse Ear Test
All drugs are dissolved with arachidonic acid in the vehicle. At the end of 3 hours, animals are sacrificed by cervical dislocation and both ears are removed. A 5 mm punch biopsy is removed from both ears and is weighed to the nearest 0.1 mg on a Cahn electrobalance. Ten animals are used per group. The study usually consists of 4 to 6 groups, of which one is a control group which is treated on the left ear with only arachidonic acid in the vehicle. The results are expressed as percent inhibition of the swelling response compared to the control group. Statistical tests for significance between groups are made using a one way analysis of variance of the ear weight differences. ID50 values are determined by regression analysis.

The test system of assay [2] is carrageenan rat paw edema. The assay can be described thus: Carrageenan Rat Paw Edema Test. Type of assay: in vivo, Male Sprague-Dawley rats. The note with it: for ED35: 4 h, oral, by regression analysis, read-out: ID35; for inhibition in vivo at 100 mg/kg: po, 100 mg/kg P.O., paw volume 4 h after carrageenan, vs control group, read-out: Percent Inhibiton at 100 mg/kg dose P.O. On the procedure: Carrageenan Rat Paw Edema Test
Male Sprague-Dawley rats (Charles River Laboratories) are weighed and food fasted overnight. The animals are then divided into four to six groups of six animals each according to body weights (average about 145 g) so that each group has about the same average body weight (within 10 g).
The following morning animals are dosed with the test compound and then placed in individual cages. For oral dosing, the drug is suspended in 0.5% methyl cellulose with 2% Tween 80, and delivered via stomach tube in a 5 ml volume.
Paw volumes (0 time) are determined on both hind paws with a mercury displacement device equipped with a transducer and digitizer. One hour after dosing the test compound, the animals are placed in a plastic restrainer and 50 ul of a 1% (w/w) carrageenan solution in 0.9% saline is injected into the ventral surface of the left rear paw. Four hours after the carrageenan injection, the paw volumes are again determined.
The results are expressed as percent inhibition of the mean paw volume of the test group relative to the control group. Statistical differences are determined by one way analysis of variance. ID35 values are determined by regression analysis.
(In general: The carrageenan paw model is a standard test of acute inflammation.)

The test system of assay [3] is oxazolone-induced inflamed mouse ear. The assay can be described thus: Oxazolone-Induced Inflamed Mouse Ear Test (Ox-IMET). Format: in vivo, Adult male Cox ICR mice. The note with it: topical, 25 ul of 10% in ethanol, 24 h after challenge, vs control group, read-out: Percent Inhibition. As to the method:
Oxazolone-Induced Inflamed Mouse Ear Test ("Ox-IMET")
Adult male Cox ICR mice, 25-35 g, are sensitized by applying 3% oxazolone in olive oil to the clipped abdomen of each animal using a cotton swab. One week later, the mice are challenged on the inner surface of the left ear with 3% oxazolone in aceotone. At the same time 25 ul of the test compound (10% in ethanol) is applied to the outer surface of the same ear. Twenty four hours after the challenge, the animals are sacrificed by cervical dislocation and both ears are removed. A 5 mm punch biopsy is removed from both ears and is weighed to the nearest 0.1 mg on a Cahn electrobalance. Ten animals are used per group. The study usually consists of 4 to 6 groups, of which one is a control group which is challenged on the left ear, but is not treated with a test compound. The results are expressed as percent inhibition of the swelling response compared to the control group. Statistical tests for significance between groups are made using a one way analysis of variance of the ear weight differences.

Assay [4] concerns adjuvant arthritis (modified Freund's adjuvant). Briefly: Adjuvant Arthritis - Therapeutic. Format: in vivo, Male Sprague-Dawley rats. The note with it: 0.5 mg/kg, 1 x/day, oral, days 20 through 28. As to the method:
Adjuvant Arthritis Methodology
Male Sprague-Dawley rats weighing 167-170 gm are allowed to acclimate to the laboratory for at least 3 days. Ten rats are then assigned to the healthy control group and the remaining rats are assigned to the arthritic group. On day 0, the rats in the arthritic group are injected subcutaneously in the middle of their tail with a modified Freund's adjuvant (MFA) at a dosage of 0.05 ml/100 gm body weight. The MFA is made by grinding Mycobacterium butyricum (Mb) and then mixing with mineral oil at a concentration of 10 mg Mb/ml of mineral oil. This is mixed in an Omni mixer for 45 minutes.
Paw volumes and body weights are determined on days -1, 6, 13, 19, 26, and 29. On day 19, paw volume changes from day -1 are determined for the arthritic group. The rats with paw volume changes≥0.50 ml but ≤2.50 ml are randomized by paw volume changes into the treatment groups on day 20. […] On day 29, two representative rats from each treatment group are photographed, paw volumes and body weights are determined, and then the rats are sacrificed with CO2 and x-rays are taken.
The radiographs are used to grade bone resorption. Bone resorption is graded in 20 areas of the fore and hind paws. The areas for grading on the hind paw are: distal femur end, proximal tibia and tibula, distal end of the tibia and the small bone under the tibia, calcaneous, tarsus, and metatarsus. The areas on the fore paws are: radius, ulna, carpus, and metacarpus. Each area is given a grade of 0 (no resorption) or 1 (resorption) for possible grade of 20 of each animal.

With `C#CCCC(C)C(=O)c1cc(C(C)(C)C)c(O)c(C(C)(C)C)c1` (stereo not shown) [Compound 13, 4-(2'-methyl-5'-hexynoyl)-2,6-di-t-butylphenol], in assay [1], the inhibition in vivo at 50 µg/ear was 74.4% and the ID50 was 17.5 ug/ear. Further, in assay [2], the ED35 was found to be 17.9 mg/kg and the inhibition in vivo at 100 mg/kg was determined as 69.8%.

As to `C#CC(=O)/C=C/c1cc(C(C)(C)C)c(O)c(C(C)(C)C)c1` [Compound 27, 4-((E)-1'-penten-4'-yn-3'-one)-2,6-di-t-butylphenol], in assay [1], the inhibition in vivo at 50 µg/ear stood at 34.8% and the ID50 came out at 52.4 ug/ear. In assay [2], the ED35 was 28.3 mg/kg and the inhibition in vivo at 100 mg/kg is 62.8%.

With `CC(C)(C)c1cc(C(=O)CC2OCCO2)cc(C(C)(C)C)c1O` [Compound 30, 4-(2'-(1",3"-dioxolane)acetyl)-2,6-di-t-butylphenol], in assay [1], the inhibition in vivo at 50 µg/ear is 69.1% and the ID50 is on record as 29.5 ug/ear. Besides, the inhibition in vivo at 10 % in assay [3] was found to be 33.4%. Moreover, in assay [2], the ED35 came out at 35.2 mg/kg and the inhibition in vivo at 100 mg/kg worked out at 72.8%.

On to `COc1ccc2c(c1)c(CC(=O)O)c(C)n2C(=O)c1ccc(Cl)cc1` [Indomethacin, reference compound], for which, in assay [4], the “Body Weights % Increase” value was found to be 7%, the “Bone Resorption % Inhibition” value is given as 15% and the “Paw Volume % Decrease” value was 43%.
